Reference: US9475816B2, “Substituted-1,4-dihydropyrazolo[4,3-b]indoles” (TAKEDA PHARMACEUTICAL COMPANY LIMITED, priority 2012, dated 2016)

Assays:
human MetAP2 enzyme [1] = target: T1, human MetAP2 enzyme (Homo sapiens, UniProt P50579); assay: MetAP2 enzyme assay, MetAP2 enzyme complexed with manganese ions; details: MetAP2 Mn pIC50, 10 μM MnCl2; -log(IC50), IC50 molar
human MetAP2 enzyme [2] = target: T1, human MetAP2 enzyme; assay: MetAP2 enzyme assay, MetAP2 enzyme complexed with cobalt ions; details: MetAP2 Co pIC50, 10 μM CoCl2; -log(IC50), IC50 molar

T1 sequence (P50579 whole entry): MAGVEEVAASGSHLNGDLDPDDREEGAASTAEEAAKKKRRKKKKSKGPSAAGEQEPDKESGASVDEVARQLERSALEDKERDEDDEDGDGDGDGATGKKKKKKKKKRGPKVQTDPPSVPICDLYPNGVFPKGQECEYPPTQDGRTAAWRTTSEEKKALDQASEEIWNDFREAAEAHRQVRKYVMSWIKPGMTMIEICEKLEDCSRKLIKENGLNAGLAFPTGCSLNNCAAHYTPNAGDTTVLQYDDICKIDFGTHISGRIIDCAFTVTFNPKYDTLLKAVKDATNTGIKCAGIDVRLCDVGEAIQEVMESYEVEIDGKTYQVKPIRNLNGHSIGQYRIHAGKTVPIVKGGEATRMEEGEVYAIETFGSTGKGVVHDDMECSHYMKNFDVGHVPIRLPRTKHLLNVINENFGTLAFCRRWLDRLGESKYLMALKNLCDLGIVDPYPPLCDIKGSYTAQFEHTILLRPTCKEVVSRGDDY

Structure (SMILES)	IC50 (human MetAP2 enzyme [1]) [nM]	IC50 (human MetAP2 enzyme [2]) [nM]
CN1CCN(C(=O)c2ccc(Cn3c4ccc(F)cc4c4[nH]ncc43)cc2)CC1 [Example 53, (4-((7-Fluoropyrazolo[4,3-b]indol-4(1H)-yl)methyl)phenyl)(4-methylpiperazin-1-yl)methanone]	79.4	50.1
Cc1cc(C(=O)N2CCOCC2)ncc1-n1c2ccc(F)cc2c2[nH]ncc21 [Example 106, (5-(7-Fluoropyrazolo[4,3-b]indol-4(1H)-yl)-4-methylpyridin-2-yl)(morpholino)methanone]	100	100
Cc1nc(N2CC(O)C2)ncc1-n1c2ccc(F)cc2c2[nH]ncc21 [Example 127, 1-(5-(7-Fluoropyrazolo[4,3-b]indol-4(1H)-yl)-4-methylpyrimidin-2-yl)azetidin-3-ol]	15.8	7.94
Cc1nc(C(=O)NC[C@H](C)O)ccc1-n1c2ccc(F)cc2c2[nH]ncc21 [Example 126, 5-(7-Fluoropyrazolo[4,3-b]indol-4(1H)-yl)-N-((2S)-2-hydroxypropyl)-6-methylpicolinamide]	10	10
Cc1cc(C(=O)N(C)C)ncc1-n1c2ccc(F)cc2c2[nH]ncc21 [Example 108, 5-(7-Fluoropyrazolo[4,3-b]indol-4(1H)-yl)-N,N,4-trimethylpicolinamide]	25.1	20
Cc1nc(N2CCO[C@H](CO)C2)ncc1-n1c2ccc(F)cc2c2[nH]ncc21 [Example 83, ((2S)-4-(5-(7-Fluoropyrazolo[4,3-b]indol-4(1H)-yl)-4-methylpyrimidin-2-yl)morpholin-2-yl)methanol]	7.94	6.31
Cc1nc(N2CCC[C@H](O)C2)ncc1-n1c2ccc(F)cc2c2[nH]ncc21 [Example 37, (3S)-1-(5-(7-Fluoropyrazolo[4,3-b]indol-4(1H)-yl)-4-methylpyrimidin-2-yl)piperidin-3-ol]	6.31	6.31
Cc1nc2[nH]c(=O)[nH]c2cc1-n1c2ccc(F)cc2c2[nH]ncc21 [Example 87, 6-(7-Fluoropyrazolo[4,3-b]indol-4(1H)-yl)-5-methyl-1H-imidazo[4,5-b]pyridin-2(3H)-one]	10	7.94
Cc1nc(N2CC[C@H](O)C2)ccc1-n1c2ccc(F)cc2c2[nH]ncc21 [Example 27, (3S)-1-(5-(7-Fluoropyrazolo[4,3-b]indol-4(1H)-yl)-6-methylpyridin-2-yl)pyrrolidin-3-ol]	3.98	6.31
Cc1nc(N[C@H](C)CO)ncc1-n1c2ccc(F)cc2c2[nH]ncc21 [Example 75, (2R)-2-((5-(7-Fluoropyrazolo[4,3-b]indol-4(1H)-yl)-4-methylpyrimidin-2-yl)amino)propan-1-ol]	5.01	7.94
Cc1nc(N2CCC(C#N)CC2)ncc1-n1c2ccc(F)cc2c2[nH]ncc21 [Example 56, 1-(5-(7-Fluoropyrazolo[4,3-b]indol-4(1H)-yl)-4-methylpyrimidin-2-yl)piperidine-4-carbonitrile]	7.94	12.6
Cc1nc(N2CC[C@@H](N(C)C)C2)ncc1-n1c2ccc(F)cc2c2[nH]ncc21 [Example 35, (3R)-1-(5-(7-Fluoropyrazolo[4,3-b]indol-4(1H)-yl)-4-methylpyrimidin-2-yl)-N,N-dimethylpyrrolidin-3-amine]	79.4	39.8
Cc1cc2[nH]ncc2cc1-n1c2ccc(F)cc2c2[nH]ncc21 [Example 19, 7-Fluoro-4-(6-methyl-1H-indazol-5-yl)-1,4-dihydropyrazolo[4,3-b]indole]	12.6	12.6
Cc1nc(N2CCC[C@@H]2C(N)=O)ncc1-n1c2ccc(F)cc2c2[nH]ncc21 [Example 73, (2R)-1-(5-(7-Fluoropyrazolo[4,3-b]indol-4(1H)-yl)-4-methylpyrimidin-2-yl)pyrrolidine-2-carboxamide]	3.16	6.31
Fc1cc2c3[nH]ncc3n(Cc3ccccc3)c2cc1F [Example 2, 4-Benzyl-6,7-difluoro-1,4-dihydropyrazolo[4,3-b]indole]	50.1	100
Cc1nc(C(=O)N2CC(C#N)C2)ccc1-n1c2ccc(F)cc2c2[nH]ncc21 [Example 125, 1-(5-(7-Fluoropyrazolo[4,3-b]indol-4(1H)-yl)-6-methylpicolinoyl)azetidine-3-carbonitrile]	10	12.6
Cc1nc(C(=O)N(C)CCO)ccc1-n1c2ccc(F)cc2c2[nH]ncc21 [Example 120, 5-(7-Fluoropyrazolo[4,3-b]indol-4(1H)-yl)-N-(2-hydroxyethyl)-N,6-dimethylpicolinamide]	15.8	15.8
Cc1nc(N)ncc1-n1c2ccc(F)cc2c2[nH]ncc21 [Example 85, 5-(7-Fluoropyrazolo[4,3-b]indol-4(1H)-yl)-4-methylpyrimidin-2-amine]	12.6	15.8

Structure (SMILES)	IC50 (human MetAP2 enzyme [1]) [nM]	IC50 (human MetAP2 enzyme [2]) [nM]
O=C(c1ccc(Cn2c3ccc(F)cc3c3[nH]ncc32)cc1)N1CCOCC1 [Example 52, (4-((7-Fluoropyrazolo[4,3-b]indol-4(1H)-yl)methyl)phenyl)(morpholino)methanone]	50.1	31.6
Cc1nc(C(=O)NCC(N)=O)ccc1-n1c2ccc(F)cc2c2[nH]ncc21 [Example 124, N-(2-Amino-2-oxoethyl)-5-(7-fluoropyrazolo[4,3-b]indol-4(1H)-yl)-6-methylpicolinamide]	12.6	10
Cc1nc2c(cc1-n1c3ccc(F)cc3c3[nH]ncc31)ncn2CCO [Example 82, 2-(6-(7-Fluoropyrazolo[4,3-b]indol-4(1H)-yl)-5-methyl-3H-imidazo[4,5-b]pyridin-3-yl)ethanol]	10	7.94
Cc1nc(N2CC[C@H](C(=O)N3CC(O)C3)C2)ncc1-n1c2ccc(F)cc2c2[nH]ncc21 [Example 111, ((3S)-1-(5-(7-Fluoropyrazolo[4,3-b]indol-4(1H)-yl)-4-methylpyrimidin-2-yl)pyrrolidin-3-yl)(3-hydroxyazetidin-1-yl)methanone]	12.6	7.94
Cc1c(-n2c3ccc(F)cc3c3[nH]ncc32)ccc2c1cnn2C [Example 17, 4-(1,4-Dimethyl-1H-indazol-5-yl)-7-fluoro-1,4-dihydropyrazolo[4,3-b]indole]	6.31	7.94
CNC(=O)c1cc(C)c(-n2c3ccc(F)cc3c3[nH]ncc32)cn1 [Example 113, 5-(7-Fluoropyrazolo[4,3-b]indol-4(1H)-yl)-N,4-dimethylpicolinamide]	10	12.6
Cc1nc(N2CC[C@@H](O)C2)ccc1-n1c2ccc(F)cc2c2[nH]ncc21 [Example 6, (3R)-1-(5-(7-Fluoropyrazolo[4,3-b]indol-4(1H)-yl)-6-methylpyridin-2-yl)pyrrolidin-3-ol]	6.31	6.31
Cn1nccc1-n1c2ccc(F)cc2c2[nH]ncc21 [Example 46, 7-Fluoro-4-(1-methyl-1H-pyrazol-5-yl)-1,4-dihydropyrazolo[4,3-b]indole]	20	20
Cc1nc(C(=O)NC[C@@H](C)O)ccc1-n1c2ccc(F)cc2c2[nH]ncc21 [Example 123, 5-(7-Fluoropyrazolo[4,3-b]indol-4(1H)-yl)-N—((R)-2-hydroxypropyl)-6-methylpicolinamide]	6.31	7.94
COCCn1cnc2cc(-n3c4ccc(F)cc4c4[nH]ncc43)c(C)nc21 [Example 31, 7-Fluoro-4-(3-(2-methoxyethyl)-5-methyl-3H-imidazo[4,5-b]pyridin-6-yl)-1,4-dihydropyrazolo[4,3-b]indole]	10	7.94
Cc1nc(N2CCN(C)CC2)ccc1-n1c2ccc(F)cc2c2[nH]ncc21 [Example 7, 7-Fluoro-4-(2-methyl-6-(4-methylpiperazin-1-yl)pyridin-3-yl)-1,4-dihydropyrazolo[4,3-b]indole]	12.6	15.8
Cc1nc2c(cc1-n1c3ccc(F)cc3c3[nH]ncc31)ncn2C[C@@H](O)CO [Example 90, (2R)-3-(6-(7-Fluoropyrazolo[4,3-b]indol-4(1H)-yl)-5-methyl-3H-imidazo[4,5-b]pyridin-3-yl)propane-1,2-diol]	5.01	15.8
Cc1nc2[nH]cnc2cc1-n1c2cc(F)c(F)cc2c2[nH]ncc21 [Example 130, 6,7-Difluoro-4-(5-methyl-3H-imidazo[4,5-b]pyridin-6-yl)-1,4-dihydropyrazolo[4,3-b]indole]	12.6	10
Cc1nc(N2CCC(O)CC2)ncc1-n1c2ccc(F)cc2c2[nH]ncc21 [Example 78, 1-(5-(7-Fluoropyrazolo[4,3-b]indol-4(1H)-yl)-4-methylpyrimidin-2-yl)piperidin-4-ol]	10	15.8
Cc1nc(N)ccc1-n1c2ccc(F)cc2c2[nH]ncc21 [Example 42, 5-(7-Fluoropyrazolo[4,3-b]indol-4(1H)-yl)-6-methylpyridin-2-amine]	15.8	10
Cc1nc(N2CC[C@@H](C(N)=O)C2)ncc1-n1c2ccc(F)cc2c2[nH]ncc21 [Example 20, (3R)-1-(5-(7-Fluoropyrazolo[4,3-b]indol-4(1H)-yl)-4-methylpyrimidin-2-yl)pyrrolidine-3-carboxamide]	6.31	12.6
Cc1nc(C(=O)NCCC#N)ccc1-n1c2ccc(F)cc2c2[nH]ncc21 [Example 122, N-(2-Cyanoethyl)-5-(7-fluoropyrazolo[4,3-b]indol-4(1H)-yl)-6-methylpicolinamide]	7.94	7.94
CCn1cnc2cc(-n3c4ccc(F)cc4c4[nH]ncc43)c(C)nc21 [Example 30, 4-(3-Ethyl-5-methyl-3H-imidazo[4,5-b]pyridin-6-yl)-7-fluoro-1,4-dihydropyrazolo[4,3-b]indole]	6.31	3.98
